Measurements from patent publication US7863289B2, “Compounds and methods for kinase modulation, and indications therefor” (Plexxikon, Inc., priority 2006, dated 2011).
pIC50: −log10 of the molar value.

Tests used:
Type in all cases: biochemical
Kdr = Kdr (Homo sapiens, UniProt P35968); assay: Kinase activity assay, Kdr; details: under the test conditions employed; read-out: activity toward kinase Kdr, IC50
From the text: (§1) Assays for the activity of kinases, including, but not limited to, B-Raf, B-Raf V600E, B-Raf […] and c-Raf-1 are known in the art, for example as described in U.S. patent application Ser. No. 11/473,347 (see Iso, PCT publication WO2007002433), the disclosure of which is hereby incorporated by reference in its entirety.

Fms = Fms (Homo sapiens, UniProt P07333); assay: Kinase activity assay, Fms; details: under the test conditions employed; read-out: activity toward kinase Fms, IC50
Fms, sequence (P07333 20-972): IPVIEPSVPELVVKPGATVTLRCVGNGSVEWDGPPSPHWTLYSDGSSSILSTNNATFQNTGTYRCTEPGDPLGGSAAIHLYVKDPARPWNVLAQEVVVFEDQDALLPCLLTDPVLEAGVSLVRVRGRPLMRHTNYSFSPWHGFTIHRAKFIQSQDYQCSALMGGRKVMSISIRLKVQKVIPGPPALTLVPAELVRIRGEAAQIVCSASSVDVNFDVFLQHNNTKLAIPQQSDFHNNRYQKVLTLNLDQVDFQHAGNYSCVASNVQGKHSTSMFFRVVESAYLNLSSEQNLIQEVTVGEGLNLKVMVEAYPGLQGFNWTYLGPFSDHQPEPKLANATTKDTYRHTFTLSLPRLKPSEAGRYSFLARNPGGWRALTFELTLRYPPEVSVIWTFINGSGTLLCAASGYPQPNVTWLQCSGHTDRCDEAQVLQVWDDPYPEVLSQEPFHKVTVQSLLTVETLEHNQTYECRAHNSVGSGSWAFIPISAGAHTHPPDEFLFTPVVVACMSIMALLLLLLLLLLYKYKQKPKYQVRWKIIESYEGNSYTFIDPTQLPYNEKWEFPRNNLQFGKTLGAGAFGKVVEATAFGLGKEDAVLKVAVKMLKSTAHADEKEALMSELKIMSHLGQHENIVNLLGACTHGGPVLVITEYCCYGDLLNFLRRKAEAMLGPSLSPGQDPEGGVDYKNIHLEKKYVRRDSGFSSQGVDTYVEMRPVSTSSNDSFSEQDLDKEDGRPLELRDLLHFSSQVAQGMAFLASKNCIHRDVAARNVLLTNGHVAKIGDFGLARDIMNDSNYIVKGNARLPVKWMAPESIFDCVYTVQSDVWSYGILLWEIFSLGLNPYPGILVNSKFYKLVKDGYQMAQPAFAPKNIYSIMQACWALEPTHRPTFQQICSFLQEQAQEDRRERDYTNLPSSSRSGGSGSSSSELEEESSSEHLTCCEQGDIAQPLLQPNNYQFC
From the text: as §1

Kit = Kit (Homo sapiens, UniProt P10721); assay: Kinase activity assay, Kit; details: under the test conditions employed; read-out: activity toward kinase Kit, IC50
From the text: as §1

B-Raf = B-Raf (Homo sapiens, UniProt P15056); assay: Kinase activity assay, B-Raf; details: under the test conditions employed; read-out: activity toward kinase B-Raf, IC50
B-Raf, sequence (P15056 whole entry): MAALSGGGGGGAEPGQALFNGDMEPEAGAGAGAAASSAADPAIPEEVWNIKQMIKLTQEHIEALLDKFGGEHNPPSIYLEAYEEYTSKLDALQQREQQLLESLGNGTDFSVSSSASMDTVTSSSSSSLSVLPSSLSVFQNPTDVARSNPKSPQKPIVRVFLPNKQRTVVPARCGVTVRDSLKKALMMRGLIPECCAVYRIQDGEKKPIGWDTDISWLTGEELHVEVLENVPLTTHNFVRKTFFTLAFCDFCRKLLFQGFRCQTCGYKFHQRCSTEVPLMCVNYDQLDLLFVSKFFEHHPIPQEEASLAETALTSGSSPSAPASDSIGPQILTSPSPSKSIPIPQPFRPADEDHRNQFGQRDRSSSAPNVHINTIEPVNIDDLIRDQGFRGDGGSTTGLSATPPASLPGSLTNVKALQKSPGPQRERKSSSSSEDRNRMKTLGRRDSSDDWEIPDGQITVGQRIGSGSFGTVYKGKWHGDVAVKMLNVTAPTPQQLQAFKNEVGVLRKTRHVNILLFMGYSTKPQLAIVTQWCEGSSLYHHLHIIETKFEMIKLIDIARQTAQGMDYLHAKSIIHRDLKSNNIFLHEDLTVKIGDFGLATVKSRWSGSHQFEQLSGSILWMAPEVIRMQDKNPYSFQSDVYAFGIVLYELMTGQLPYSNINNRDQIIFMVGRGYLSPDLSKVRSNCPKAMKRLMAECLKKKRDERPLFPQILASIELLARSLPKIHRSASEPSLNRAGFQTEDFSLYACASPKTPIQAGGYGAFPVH
From the text: as §1

c-Raf-1 = c-Raf-1 (Homo sapiens, UniProt P04049); assay: Kinase activity assay, c-Raf-1; details: under the test conditions employed; read-out: activity toward kinase c-Raf-1, IC50
c-Raf-1, sequence (P04049 whole entry): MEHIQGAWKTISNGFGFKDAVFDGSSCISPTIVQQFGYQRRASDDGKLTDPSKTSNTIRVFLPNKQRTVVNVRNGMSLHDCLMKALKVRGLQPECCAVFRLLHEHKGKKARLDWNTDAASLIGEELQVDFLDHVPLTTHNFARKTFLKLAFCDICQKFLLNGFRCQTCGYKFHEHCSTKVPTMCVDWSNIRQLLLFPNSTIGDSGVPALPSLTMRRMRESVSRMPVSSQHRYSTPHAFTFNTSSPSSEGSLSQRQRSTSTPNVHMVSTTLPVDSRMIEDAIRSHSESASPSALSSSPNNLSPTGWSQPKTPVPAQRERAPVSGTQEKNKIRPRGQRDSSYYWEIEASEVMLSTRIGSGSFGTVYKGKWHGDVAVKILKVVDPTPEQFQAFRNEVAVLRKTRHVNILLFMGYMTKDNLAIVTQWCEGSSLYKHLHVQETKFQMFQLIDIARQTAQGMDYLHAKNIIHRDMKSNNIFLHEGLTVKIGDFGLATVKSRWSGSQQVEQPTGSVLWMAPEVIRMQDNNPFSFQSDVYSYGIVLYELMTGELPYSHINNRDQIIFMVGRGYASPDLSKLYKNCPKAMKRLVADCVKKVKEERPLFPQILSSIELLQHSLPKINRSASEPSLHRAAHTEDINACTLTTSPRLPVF
From the text: as §1

B-Raf V600E = B-Raf V600E (Homo sapiens, UniProt P15056, V600E); assay: Kinase activity assay, B-Raf V600E; details: under the test conditions employed; read-out: activity toward kinase B-Raf V600E, IC50
B-Raf V600E, sequence (P15056 whole entry V600E): as the sequence (P15056 whole entry) above, with V600E counted along it
From the text: as §1

Src = Src (Homo sapiens, UniProt P12931); assay: Kinase activity assay, Src; details: under the test conditions employed; read-out: activity toward kinase Src, IC50
Src, sequence (P12931 whole entry): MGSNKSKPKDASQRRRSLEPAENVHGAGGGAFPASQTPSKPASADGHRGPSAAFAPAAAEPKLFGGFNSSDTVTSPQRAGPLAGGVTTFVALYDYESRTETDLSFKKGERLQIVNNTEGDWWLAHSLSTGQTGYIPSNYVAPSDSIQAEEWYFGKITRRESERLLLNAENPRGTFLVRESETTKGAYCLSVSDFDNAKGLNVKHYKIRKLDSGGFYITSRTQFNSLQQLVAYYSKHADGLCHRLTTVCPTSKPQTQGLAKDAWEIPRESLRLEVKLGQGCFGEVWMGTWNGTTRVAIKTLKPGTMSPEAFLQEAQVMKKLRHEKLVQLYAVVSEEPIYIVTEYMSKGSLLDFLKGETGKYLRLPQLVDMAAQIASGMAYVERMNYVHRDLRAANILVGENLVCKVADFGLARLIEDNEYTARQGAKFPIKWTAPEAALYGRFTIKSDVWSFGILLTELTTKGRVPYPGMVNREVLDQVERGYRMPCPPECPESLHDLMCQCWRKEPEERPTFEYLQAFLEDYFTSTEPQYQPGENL
From the text: as §1

Btk = Btk (Homo sapiens, UniProt Q06187); assay: Kinase activity assay, Btk; details: under the test conditions employed; read-out: activity toward kinase Btk, IC50
Btk, sequence (Q06187 whole entry): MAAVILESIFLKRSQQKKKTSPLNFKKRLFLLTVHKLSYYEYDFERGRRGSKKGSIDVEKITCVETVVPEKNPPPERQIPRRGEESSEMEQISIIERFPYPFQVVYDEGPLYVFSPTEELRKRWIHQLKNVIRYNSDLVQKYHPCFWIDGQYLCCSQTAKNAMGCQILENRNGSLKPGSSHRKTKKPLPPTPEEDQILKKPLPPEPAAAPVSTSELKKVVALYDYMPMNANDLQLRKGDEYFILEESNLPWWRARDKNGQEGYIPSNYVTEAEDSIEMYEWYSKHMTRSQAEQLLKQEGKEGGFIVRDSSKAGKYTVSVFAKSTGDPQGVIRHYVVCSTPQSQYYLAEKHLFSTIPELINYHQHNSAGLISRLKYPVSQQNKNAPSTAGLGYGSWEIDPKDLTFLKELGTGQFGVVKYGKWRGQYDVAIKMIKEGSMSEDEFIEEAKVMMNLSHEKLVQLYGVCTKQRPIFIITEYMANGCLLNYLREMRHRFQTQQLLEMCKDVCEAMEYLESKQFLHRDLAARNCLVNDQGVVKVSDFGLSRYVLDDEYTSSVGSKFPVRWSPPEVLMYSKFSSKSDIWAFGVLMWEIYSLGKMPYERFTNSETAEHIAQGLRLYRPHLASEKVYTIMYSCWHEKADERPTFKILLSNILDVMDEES
From the text: as §1

Measured: pIC50

Kdr, sequence (P35968 20-1356): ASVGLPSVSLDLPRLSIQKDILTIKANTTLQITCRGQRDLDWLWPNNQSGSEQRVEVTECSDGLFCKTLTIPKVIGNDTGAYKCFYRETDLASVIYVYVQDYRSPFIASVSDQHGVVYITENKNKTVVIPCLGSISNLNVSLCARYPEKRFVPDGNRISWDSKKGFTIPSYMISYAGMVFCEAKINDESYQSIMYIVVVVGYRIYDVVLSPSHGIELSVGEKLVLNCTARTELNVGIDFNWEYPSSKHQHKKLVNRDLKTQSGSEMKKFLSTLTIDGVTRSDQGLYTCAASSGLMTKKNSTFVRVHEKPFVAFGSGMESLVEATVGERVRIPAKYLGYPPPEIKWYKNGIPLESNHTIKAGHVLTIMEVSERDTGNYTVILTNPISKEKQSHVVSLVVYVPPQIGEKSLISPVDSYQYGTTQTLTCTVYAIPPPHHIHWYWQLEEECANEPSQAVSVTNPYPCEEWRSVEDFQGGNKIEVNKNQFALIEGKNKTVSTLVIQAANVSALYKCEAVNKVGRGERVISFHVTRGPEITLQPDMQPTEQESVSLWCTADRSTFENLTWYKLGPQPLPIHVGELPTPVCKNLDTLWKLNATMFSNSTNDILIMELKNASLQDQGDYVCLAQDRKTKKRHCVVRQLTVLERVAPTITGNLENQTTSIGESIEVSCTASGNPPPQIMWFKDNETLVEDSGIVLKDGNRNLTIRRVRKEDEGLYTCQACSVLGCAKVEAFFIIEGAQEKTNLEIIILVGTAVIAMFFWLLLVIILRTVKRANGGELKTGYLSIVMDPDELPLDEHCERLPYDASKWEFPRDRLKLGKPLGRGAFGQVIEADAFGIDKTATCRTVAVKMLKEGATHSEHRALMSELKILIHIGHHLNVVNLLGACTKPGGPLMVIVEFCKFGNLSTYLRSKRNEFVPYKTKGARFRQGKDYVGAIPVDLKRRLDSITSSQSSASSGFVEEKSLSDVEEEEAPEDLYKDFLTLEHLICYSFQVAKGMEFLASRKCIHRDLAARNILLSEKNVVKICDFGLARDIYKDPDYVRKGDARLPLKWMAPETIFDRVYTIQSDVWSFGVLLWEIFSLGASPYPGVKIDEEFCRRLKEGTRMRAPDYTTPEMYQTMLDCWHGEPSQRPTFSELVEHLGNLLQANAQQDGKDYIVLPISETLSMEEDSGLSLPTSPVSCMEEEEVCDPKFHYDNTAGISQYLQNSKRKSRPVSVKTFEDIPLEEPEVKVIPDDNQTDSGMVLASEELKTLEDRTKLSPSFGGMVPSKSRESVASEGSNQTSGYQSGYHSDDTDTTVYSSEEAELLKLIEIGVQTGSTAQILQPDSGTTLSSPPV

CC(C)(C)c1ccc(S(=O)(=O)Nc2ccc(F)c(C(=O)c3c[nH]c4ncc(Cl)cc34)c2F)cc1 [Compound P-0014, 4-tert-Butyl-N-[3-(5-chloro-1H-pyrrolo[2,3-b]pyridine-3-carbonyl)-2,4-difluoro-phenyl]-benzenesulfonamide]
not listed: Src | Btk
≥ 5.00: all other assays above

CCCc1ccc(S(=O)(=O)Nc2ccc(F)c(C(=O)c3c[nH]c4ncc(Cl)cc34)c2F)cc1 [Compound P-0015, N-[3-(5-Chloro-1H-pyrrolo[2,3-b]pyridine-3-carbonyl)-2,4-difluoro-phenyl]-4-propyl-benzenesulfonamide]
not listed: Kdr | Btk
≥ 5.00: all other assays above

CCNC(=O)CCc1cnc2[nH]cc(C(=O)c3c(F)ccc(NS(=O)(=O)c4ccc(C(F)(F)F)cc4)c3F)c2c1 [Compound P-0035, 3-{3-[2,6-Difluoro-3-(4-trifluoromethyl-benzenesulfonylamino)-benzoyl]-1H-pyrrolo[2,3-b]pyridin-5-yl}-N-ethyl-propionamide]
≥ 5.00: Fms | Kit | B-Raf | B-Raf V600E

CC(C)Oc1ccc(S(=O)(=O)Nc2ccc(F)c(C(=O)c3c[nH]c4ncc(Cl)cc34)c2F)cc1 [Compound P-0011, N-[3-(5-Chloro-1H-pyrrolo[2,3-b]pyridine-3-carbonyl)-2,4-difluoro-phenyl]-4-isopropoxy-benzenesulfonamide]
not listed: B-Raf V600E | Btk
≥ 5.00: all other assays above

O=C(c1c(F)ccc(NS(=O)(=O)c2ccc(-n3cccn3)cc2)c1F)c1c[nH]c2ncc(Cl)cc12 [Compound P-0008, N-[3-(5-Chloro-1H-pyrrolo[2,3-b]pyridine-3-carbonyl)-2,4-difluoro-phenyl]-4-pyrazol-1-yl-benzenesulfonamide]
≥ 5.00: Kdr | Kit | Src | c-Raf-1

Cc1cnc(-c2cnc3[nH]cc(C(=O)c4c(F)ccc(NS(=O)(=O)c5cccc(OC(F)F)c5)c4F)c3c2)[nH]1 [Compound P-0024, 3-Difluoromethoxy-N-{2,4-difluoro-3-[5-(5-methyl-1H-imidazol-2-yl)-1H-pyrrolo[2,3-b]pyridine-3-carbonyl]-phenyl}-benzenesulfonamide]
not listed: c-Raf-1
≥ 5.00: all other assays above

Cc1cc(S(=O)(=O)Nc2ccc(F)c(C(=O)c3c[nH]c4ncc(Cl)cc34)c2F)c(C(F)(F)F)o1 [Compound P-0002, 5-Methyl-2-trifluoromethyl-furan-3-sulfonic acid [3-(5-chloro-1H-pyrrolo[2,3-b]pyridine-3-carbonyl)-2,4-difluoro-phenyl]-amide]
not listed: Btk
≥ 5.00: all other assays above

O=C(c1c(F)ccc(NS(=O)(=O)c2ccc3ncsc3c2)c1F)c1c[nH]c2ncc(Cl)cc12 [Compound P-0009, Benzothiazole-6-sulfonic acid [3-(5-chloro-1H-pyrrolo[2,3-b]pyridine-3-carbonyl)-2,4-difluoro-phenyl]-amide]
not listed: Kdr | Btk
≥ 5.00: all other assays above

CCCc1ccc(S(=O)(=O)Nc2ccc(F)c(C(=O)c3c[nH]c4ncc(-c5cnn(C)c5)cc34)c2F)cc1 [Compound P-0021, N-{2,4-Difluoro-3-[5-(1-methyl-1H-pyrazol-4-yl)-1H-pyrrolo[2,3-b]pyridine-3-carbonyl]-phenyl}-4-propyl-benzenesulfonamide]
≥ 5.00: all assays above

O=C(c1c(F)ccc(NS(=O)(=O)c2csc3ccccc23)c1F)c1c[nH]c2ncc(Cl)cc12 [Compound P-0001, Benzo[b]thiophene-3-sulfonic acid [3-(5-chloro-1H-pyrrolo[2,3-b]pyridine-3-carbonyl)-2,4-difluoro-phenyl]-amide]
not listed: Src | Btk
≥ 5.00: all other assays above

CCCc1ccc(S(=O)(=O)Nc2ccc(F)c(C(=O)c3c[nH]c4ncc(-c5ncc(C)n5C)cc34)c2F)cc1 [Compound P-0027, N-{3-[5-(1,5-Dimethyl-1H-imidazol-2-yl)-1H-pyrrolo[2,3-b]pyridine-3-carbonyl]-2,4-difluoro-phenyl}-4-propyl-benzenesulfonamide]
≥ 5.00: Kdr | Fms | Kit | B-Raf

Cc1ccc(S(=O)(=O)Nc2ccc(F)c(C(=O)c3c[nH]c4ncc(Cl)cc34)c2F)s1 [Compound P-0028, 5-Methyl-thiophene-2-sulfonic acid [3-(5-chloro-1H-pyrrolo[2,3-b]pyridine-3-carbonyl)-2,4-difluoro-phenyl]-amide]
not listed: c-Raf-1 | Btk
≥ 5.00: all other assays above

Cn1cc(S(=O)(=O)Nc2ccc(F)c(C(=O)c3c[nH]c4ncc(Cl)cc34)c2F)c(C(F)(F)F)n1 [Compound P-0010, 1-Methyl-3-trifluoromethyl-1H-pyrazole-4-sulfonic acid [3-(5-chloro-1H-pyrrolo[2,3-b]pyridine-3-carbonyl)-2,4-difluoro-phenyl]-amide]
≥ 5.00: Kdr | Fms | Kit | Src

COCCOc1cnc2[nH]cc(C(=O)c3c(F)ccc(NS(=O)(=O)c4ccc(C(C)C)cc4)c3F)c2c1 [Compound P-0018, N-{2,4-Difluoro-3-[5-(2-methoxy-ethoxy)-1H-pyrrolo[2,3-b]pyridine-3-carbonyl]-phenyl}-4-isopropyl-benzenesulfonamide]
≥ 5.00: Kdr | Kit | Src | B-Raf | c-Raf-1
